Publication PMC8933379, “Evaluation of the absolute oral bioavailability of the anaplastic lymphoma kinase/c-ROS oncogene 1 kinase inhibitor lorlatinib in healthy participants” (Cancer Chemotherapy and Pharmacology, 2021)
Like-named read-outs stand apart in the source and are kept apart here.

Experiments:
[1] = planned IV dose formulation, rabbits; earlier toxicology studies, no reference given; cited from earlier work
[2] = rats; animal studies, no reference given; cited from earlier work
[3] = parameters: method as in PMID 33937953; conditions: co-administered with modafinil; cited from earlier work
[4] = cited from earlier work; for Mean half-life: previous drug interaction studies
[5] = Absolute oral bioavailability crossover study: plasma pharmacokinetics (LC-MS/MS, non-compartmental analysis); type: in vivo, human; conditions: for half-life: read-out: t½ (plasma terminal half-life) (converted); for Tmax: median (range)
Procedure: This was an open-label, phase 1, randomized two-sequence, two-treatment, two-period, crossover study in healthy participants. Approximately 12 participants were to be randomized in a 1:1 ratio to receive one of two treatment sequences: lorlatinib 50 mg IV dose (Treatment A) followed by a lorlatinib 100 mg single oral dose (Treatment B), or lorlatinib oral dose followed by lorlatinib IV dose. The IV dose is 100% bioavailable and was, therefore, considered to be the reference in this study. The reference lorlatinib 50 mg single IV dose was administered as 250 mL IV solution (0.20 mg/mL) over approximately 1.25 h at a constant rate in the morning of Day 1. Lorlatinib 100 mg single oral dose was administered as 4 × 25 mg immediate-release free base tablets in the morning of Day 1 with 240 mL ambient temperature water. Participants were instructed to swallow the lorlatinib tablets whole and to not manipulate or chew the tablets prior to swallowing. Both treatments were administered after an overnight fast of at least 10 h. To standardise the conditions on PK sampling days, during the first 4 h after dosing or start of the IV dose, participants were to refrain from eating and drinking beverages other than water or lying down (unless required for safety monitoring). Period 1 was defined as a 7-day period in which participants received Treatment A or B. Period 2 was defined as the 7-day period after Period 1, in which participants received the alternative treatment to before. Following treatment administration, participants were to undergo PK sampling for 144 h with a washout period of at least 10 days between successive lorlatinib doses. The study was conducted at a single Pfizer Clinical Research Unit (CRU) in New Haven, Connecticut, and participants were confined to the CRU from the time of admission (Day 0) until discharge (Day 7 of Period 2).
The detection range was 0.05–50 ng/mL or 1 to 1000 ng/mL for low and high concentration samples, respectively. […] Calibration standard responses were linear over the range of 2.50–2500 ng/mL; using a weighted (l/concentration^2) linear least squares regression. […] The lower limit of quantification (LLOQ) for lorlatinib and its metabolite was 2.50 ng/mL.
PK parameter values were calculated using an internally validated software system (eNCA). Actual sample collection times were used for the PK parameter analysis and samples below the LLOQ were set to 0. Maximum observed plasma concentration, Cmax, and time when Cmax was reached, Tmax, were determined from the observed values. The area under the curve (AUC) from time 0 to the time of the last quantifiable concentration (AUClast) was estimated using the linear/log trapezoidal method. AUCinf was calculated as AUClast + (Clast/kel), where Clast was the predicted plasma concentration at the last quantifiable time point estimated from the log-linear regression analysis and kel was the terminal phase rate constant calculated by a linear regression of the log-linear concentration–time curve. PK parameters based on terminal phase estimation were reported only where a well-characterized terminal phase was observed. A well-characterized terminal phase is defined as one with at least three data points, r^2 ≥ 0.9, and AUCextrap% ≤ 20. Metabolite-to-parent ratios were calculated after adjustment for molecular weights. Clearance (CL) for the IV dose and CL/F for the oral dose were calculated as dose/AUCinf. Volume of distribution during the terminal phase (area) was calculated as IV dose/(kel×AUCinf).
The hepatic extraction ratio was calculated for each participant as the hepatic blood clearance divided by hepatic blood flow.
Summary profiles (mean) of the lorlatinib plasma concentration–time data were plotted by treatment. Nominal PK sampling time was used for summary statistics and summary plots by sampling time.

[6] = cited from earlier work; for Mean half-life: previous drug interaction studies; remark: listed apart in the source
[7] = used to estimate hepatic blood clearance; no reference given; cited from earlier work
[8] = 100 mg oral tablets vs 50 mg IV, healthy participants, n = 11
[9] = lorlatinib 100 mg oral tablets, n = 11, geometric mean (geometric %CV)

## C[C@H]1Oc2cc(cnc2N)-c2c(nn(C)c2C#N)CN(C)C(=O)c2ccc(F)cc21 [Lorlatinib, (10R)-7-amino-12-fluoro-2,10,16-trimethyl-15-oxo-10,15,16,17-tetrahydro-2H-8,4-(metheno)pyrazolo[4,3-h][2,5,11]-benzoxadiazacyclotetradecine-3-carbonitrile]
[1]
  Local vascular tissue irritation: did not indicate any local vascular tissue irritation
[2]
  Absolute bioavailability: approximately 100%
[3]
  AUCinf reduction: 23%
[4]; co-administered with itraconazole
  AUCinf increase: 42%
[4]; lorlatinib alone, itraconazole study
  Mean half-life: 23 h
[4]; with the inhibitor itraconazole
  Mean half-life: 30 h
[5]; [8]
  Absolute oral bioavailability: ratio (test/reference) of adjusted means, AUCinf (dn): 80.78%
  Ratio (test/reference) of adjusted means, AUClast (dn): 81.65%
[5]; 100 mg oral tablets vs 50 mg IV, healthy participants, n = 11, listed as lorlatinib
  Absolute oral bioavailability: ratio (test/reference) of adjusted means, AUCinf (dn): 81%
[5]; both oral administration and IV dosing
  Inter-subject variability (%CV) for AUCinf, AUClast and Cmax: 30–38%
[5]; human, plasma, iv, 50 mg, Reference, lorlatinib 50 mg IV, mixed-effects model, read-out: AUCinf (dn), adjusted geometric mean
  AUC(0-inf): 5190 ng·h/mL
[5]; human, plasma, iv, 50 mg, Reference, lorlatinib 50 mg IV, mixed-effects model, read-out: AUClast (dn), adjusted geometric mean
  AUC(0-t): 5030 ng·h/mL
[5]; human, plasma, iv, 50 mg, lorlatinib 50 mg IV, dose normalized, n = 11, geometric mean (geometric %CV), read-out: AUCinf (dn)
  AUC(0-inf): 5150 ng·h/mL
[5]; human, plasma, iv, 50 mg, lorlatinib 50 mg IV, dose normalized, n = 11, geometric mean (geometric %CV), read-out: AUClast (dn)
  AUC(0-t): 4990 ng·h/mL
[5]; human, plasma, iv, 50 mg, lorlatinib 50 mg IV, n = 11, arithmetic mean ± SD
  half-life: 1620 min
[5]; human, plasma, iv, 50 mg, lorlatinib 50 mg IV, n = 11, geometric mean (geometric %CV), read-out: AUCinf
  AUC(0-inf): 5150 ng·h/mL
[5]; human, plasma, iv, 50 mg, lorlatinib 50 mg IV, n = 11, geometric mean (geometric %CV), read-out: AUClast
  AUC(0-t): 4990 ng·h/mL
[5]; human, plasma, oral, 100 mg, Test, lorlatinib 100 mg oral tablets, mixed-effects model, normalized to 50 mg IV dose, read-out: AUCinf (dn), adjusted geometric mean
  AUC(0-inf): 4190 ng·h/mL
[5]; human, plasma, po, 100 mg, lorlatinib 100 mg oral tablets, n = 11, arithmetic mean ± SD
  half-life: ~1530 min
[5]; human, plasma, po, 100 mg, lorlatinib 100 mg oral tablets, single dose, fasted, n = 11, geometric mean (geometric %CV), read-out: AUCinf
  AUC(0-inf): 8290 ng·h/mL
[5]; human, plasma, lorlatinib 50 mg IV, dose normalized, n = 11, geometric mean (geometric %CV), read-out: Cmax (dn)
  Cmax: 392 ng/mL
[5]; human, plasma, lorlatinib 50 mg IV, n = 11, geometric mean (geometric %CV)
  clearance: 162 mL/min
[5]; human, plasma, lorlatinib 50 mg IV, n = 11, geometric mean (geometric %CV), read-out: Vss
  Vd: 305 L
[5]; human, plasma, lorlatinib 50 mg IV, n = 11, read-out: Tmax
  Tmax: 1.28 h
[5]; human, plasma, lorlatinib 100 mg oral tablets, n = 11, geometric mean (geometric %CV), read-out: Vz/F
  Vd/F: 440 L
[5]; lorlatinib 50 mg IV, n = 11, geometric mean (geometric %CV)
  Cmax: 392 ng/mL
[5]; lorlatinib 100 mg oral tablets, n = 11, arithmetic mean ± SD
  t½ (plasma terminal half-life): 25.54 ± 3.75 h
[5]; [9]
  AUClast: 8109 (33) ng.h/mL
  CL/F: 12.05 (34) L/h
  Cmax: 501 ng/mL
[5]; lorlatinib 100 mg oral tablets, n = 11
  Tmax: 1.50 (1.00–4.02) h
[5]; printed in the 100 mg oral column, plasma clearance × blood-to-plasma ratio 0.985 / hepatic blood flow 90 L/hr, geometric mean (geometric %CV)
  Eh (hepatic extraction ratio): 0.118
[6]; co-administered with rifampicin
  AUCinf reduction: 85%
[6]; lorlatinib alone, rifampin study
  Mean half-life: 29 h
[6]; with the inducer rifampin
  Mean half-life: 18 h
[7]
  Blood-to-plasma partitioning ratio: 0.985
